Test results as given in patent US20060217305A1, “Induction of tumor cell senescence by retinoid receptor agonists and antagonists” (Ordway Research Institute, Inc., priority 2005, published 2006).
Where “and” joins values, the source holds several entries; their conditions need not be identical. Identical values can stand only once.

System: MCF-7 cells, human transcripts
Assay: Affymetrix U133 2.0 Plus microarray analysis of gene expression
Assay type: cell-based
Protocol: FIG. 4 depicts microarray analysis of changes in gene expression in MCF-7 cells treated with RAR agonist LGD1550 or RAR antagonist LG100815, plotted using GeneSpring software. The X axis represents different time points of treatment with RAR ligands (0 point correspond to cells cultured for 3 days with DMSO carrier).
To determine the effects of the RAR agonist and antagonist on the expression of essentially all the human genes, MCF-7 cells were treated with 100 nM of RAR agonist LGD1550 or 10 μM of RAR antagonist LG100815, concentrations that provide maximal induction of gene expression according to Q-PCR assays (as discussed above). Cells were treated for 24, 48 or 72 hrs, and total RNA from the untreated or treated cells was isolated using Qiagen's RNeasy Total RNA Isolation Kit. For gene expression profiling, RNA samples were provided to the microarray service facility of the Wadsworth Center Genomics Institute, which carried out biotinylated target preparation and hybridization with Affymetrix U 133 2.0 Plus oligonucleotide microarrays containing 56,000 probe sets representing 48,500 human transcripts. The hybridization signals were normalized using GCRMA procedure and analyzed using GeneSpring software (Silicone Genetics). […] The effects of the agonist and the antagonist also agreed with the results of the earlier analysis of the effects of RA on MCF-7 cells, with all 13 genes previously shown by RT-PCR to be induced in that system (Dokmanovic et al., 2002) also showing induction in the present microarray analysis (FIG. 4b).
RNA or protein products of genes that are induced to a similar level by both the RAR agonist and the RAR antagonist can be used as reporters in screening for compounds with properties similar to LG0100815. RNA or protein products of genes from this group (or promoter constructs for such genes) can be used as reporters in screening for compounds that mimic the effect of retinoids. Table 3, as shown below, lists a set of 508 genes chosen as preferred reporters. These genes were selected by being strongly (at least 2-fold) induced by both the agonist and the antagonist relative to untreated cells and showing no more than two-fold difference between their induction by the agonist and the antagonist. 62 genes listed at the top of Table 3 are particularly preferred reporters, as they are most strongly (at least 4-fold) induced by both the agonist and the antagonist. Table 4, as shown below, lists a set of 53 genes that can be used as preferred markers to discriminate between RARE-dependent and RARE-independent induction of transcription. These genes were chosen by being induced at least 3-fold by the agonist relative to untreated cells and also showing at least 4 times stronger induction by the agonist than by the antagonist. FIG. 6 plots the maximal fold induction of gene expression produced by the agonist versus that produced by the antagonist for the genes listed in Table 3 (particularly preferred reporters only) and in Table 4, with the corresponding trend lines. The relative effects of a tested compound on the genes in Table 3 and Table 4 should indicate whether the compound behaves as a RAR agonist or RAR antagonist. For example, one can select matching pairs of genes from Table 3 and Table 4 that are induced by the agonist to approximately the same degree. A compound that mimics the effects of the agonist should induce such genes to a similar level, whereas a compound that behaves like an antagonist should induce the gene from Table 3 to a much greater degree than the gene from Table 4.

[1] = MCF-7, LGD1550 100 nM, 24, 48 or 72 hrs
[2] = MCF-7, LGD1550 100 nM, 24, 48 or 72 hrs, listed as agonist

CC(/C=C/C=C(\C)c1cc(C(C)(C)C)cc(C(C)(C)C)c1)=C\C(=O)O [LGD1550]
Maximal effect, Fold induction (Genbank AI911972, probe 230780_at): 3.89 fold | Maximal effect, Fold induction (Genbank AW268719, probe 236798_at): 2.03 fold | Maximal effect, Fold induction (Genbank AW612407, probe 230098_at): 2.32 fold | Maximal effect, Fold induction (Genbank BF038869, probe 235322_at): 2.13 fold | Maximal effect, Fold induction (Genbank CA442342, probe 1556097_at): 3.11 fold | HOXA4 fold induction by the agonist (MCF-7, LGD1550 100 nM): 7.8 fold | RBP1 fold induction by the agonist (MCF-7, LGD1550 100 nM): 4.4 fold | number of 40 RARE-containing human genes induced ≧1.5-fold (MCF-7, LGD1550 100 nM): seven | response of RARE-containing genes induced by both ligands, agonist relative to antagonist (MCF-7, LGD1550 100 nM vs LG100815 10 μM): 3-5 fold stronger | APXL2 239435_x_at fold induction, maximal effect of agonist [1]: 63.13 fold | APXL2 241935_at fold induction, maximal effect of agonist [1]: 5.82 fold | BF593636 228642_at fold induction, maximal effect of agonist [1]: 130.43 fold | CA448125 1557050_at fold induction, maximal effect of agonist [1]: 8.90 fold | CA448125 1557051_s_at fold induction, maximal effect of agonist [1]: 23.74 fold | CEACAM1 206576_s_at fold induction, maximal effect of agonist [1]: 16.23 fold | CP 228143_at fold induction, maximal effect of agonist [1]: 10.88 fold | CP 1558034_s_at fold induction, maximal effect of agonist [1]: 44.25 fold | CYP1A1 205749_at raw signal, maximal effect of agonist [1]: 35.09 | GBP3 223434_at fold induction, maximal effect of agonist [1]: 7.32 fold | HOXA3 230080_at fold induction, maximal effect of agonist [1]: 10.38 fold | HPS3 227253_at fold induction, maximal effect of agonist [1]: 21.01 fold | HSXIAPAF1 228617_at fold induction, maximal effect of agonist [1]: 17.54 fold | IGFBP3 212143_s_at fold induction, maximal effect of agonist [1]: 16.12 fold | KRT4 213240_s_at fold induction, maximal effect of agonist [1]: 9.38 fold | OAS2 204972_at fold induction, maximal effect of agonist [1]: 15.91 fold | RNASE1 201785_at fold induction, maximal effect of agonist [1]: 49.39 fold | SLC1A1 213664_at fold induction, maximal effect of agonist [1]: 8.96 fold | TRIM31 215444_s_at fold induction, maximal effect of agonist [1]: 12.16 fold | CYP26A1 206424_at fold induction, maximal effect of agonist [2]: 220 fold and 220.23 fold | HOXA1 214639_s_at fold induction, maximal effect of agonist [2]: 95 fold | Maximal effect, Fold induction (gene ACVR1B, Genbank NM_020327, probe 208223_s_at): 2.81 fold | Maximal effect, Fold induction (gene ADFP, Genbank BC005127, probe 209122_at): 2.05 fold | Maximal effect, Fold induction (gene AKAP13, Genbank AK022014, probe 222024_s_at): 2.03 fold | Maximal effect, Fold induction (gene AMIGO, Genbank AA001423, probe 226718_at): 2.40 fold | Maximal effect, Fold induction (gene ARHGAP5, Genbank AK023014, probe 233849_s_at): 2.03 fold | Maximal effect, Fold induction (gene ARMCX3, Genbank AL121883, probe 222444_at): 2.01 fold | Maximal effect, Fold induction (gene BHLHB2, Genbank NM_003670, probe 201170_s_at): 3.46 fold | Maximal effect, Fold induction (gene CASP2, Genbank BC002427, probe 209811_at): 3.72 fold | Maximal effect, Fold induction (gene CDKL5, Genbank AI611074, probe 227004_at): 3.20 fold | Maximal effect, Fold induction (gene CHP, Genbank NM_007236, probe 207993_s_at): 2.32 fold | Maximal effect, Fold induction (gene CRTAP, Genbank AA025858, probe 227138_at): 2.07 fold | Maximal effect, Fold induction (gene CTMP, Genbank AI184512, probe 229253_at): 2.03 fold | Maximal effect, Fold induction (gene DKFZp434H2226, Genbank AL137370, probe 232893_at): 2.04 fold | Maximal effect, Fold induction (gene DKFZp434K2435, Genbank AL136855, probe 223594_at): 2.08 fold | Maximal effect, Fold induction (gene DNCL2B, Genbank AW959427, probe 238116_at): 2.02 fold | Maximal effect, Fold induction (gene DSCR1, Genbank NM_004414, probe 208370_s_at): 3.64 fold | Maximal effect, Fold induction (gene DUSP3, Genbank NM_004090, probe 201538_s_at): 2.94 fold | Maximal effect, Fold induction (gene DUSP16, Genbank AY038927, probe 1555399_a_at): 2.30 fold | Maximal effect, Fold induction (gene FLJ10996, Genbank NM_019044, probe 219774_at): 2.02 fold | Maximal effect, Fold induction (gene FLJ11196, Genbank NM_018357, probe 218651_s_at): 2.24 fold | Maximal effect, Fold induction (gene FLJ30656, Genbank BF197707, probe 212529_at): 2.09 fold | Maximal effect, Fold induction (gene FLJ32096, Genbank AK056658, probe 1555870_at): 2.98 fold | Maximal effect, Fold induction (gene FOXO3A, Genbank N25732, probe 204131_s_at): 2.53 fold | Maximal effect, Fold induction (gene GALNT7, Genbank BF699855, probe 222587_s_at): 2.51 fold | Maximal effect, Fold induction (gene GUCY1B2, Genbank NM_004129, probe 220506_at): 2.63 fold | Maximal effect, Fold induction (gene HIG2, Genbank NM_013332, probe 218507_at): 2.19 fold | Maximal effect, Fold induction (gene HNRPL, Genbank X16135, probe 35201_at): 2.16 fold | Maximal effect, Fold induction (gene INPP1, Genbank NM_002194, probe 202794_at): 2.01 fold | Maximal effect, Fold induction (gene INSIG1, Genbank BG292233, probe 201626_at): 2.04 fold | Maximal effect, Fold induction (gene JMJD3, Genbank AB002344, probe 41386_i_at): 2.48 fold | Maximal effect, Fold induction (gene KIAA1219, Genbank BG236163, probe 221738_at): 2.03 fold | Maximal effect, Fold induction (gene LCP1, Genbank J02923, probe 208885_at): 2.25 fold | Maximal effect, Fold induction (gene LGALS8, Genbank L78132, probe 208935_s_at): 2.79 fold | Maximal effect, Fold induction (gene LOC23117, Genbank AL047052, probe 235060_at): 2.00 fold | Maximal effect, Fold induction (gene LOC55971, Genbank AA496034, probe 227372_s_at): 2.09 fold | Maximal effect, Fold induction (gene LOC158402, Genbank BE504242, probe 236769_at): 2.00 fold | Maximal effect, Fold induction (gene LOC284408, Genbank AW467077, probe 235779_at): 2.03 fold | Maximal effect, Fold induction (gene MAML2, Genbank AI769569, probe 235457_at): 3.92 fold | Maximal effect, Fold induction (gene MAP3K1, Genbank AA541479, probe 225927_at): 2.05 fold | Maximal effect, Fold induction (gene MDM4, Genbank NM_002393, probe 205655_at): 2.06 fold | Maximal effect, Fold induction (gene MGC9850, Genbank BE378670, probe 224857_s_at): 2.58 fold | Maximal effect, Fold induction (gene MICAL2, Genbank BE965029, probe 212473_s_at): 2.01 fold | Maximal effect, Fold induction (gene MT1X, Genbank NM_005952, probe 208581_x_at): 3.10 fold | Maximal effect, Fold induction (gene NEDD9, Genbank AL136139, probe 202149_at): 2.24 fold | Maximal effect, Fold induction (gene NQO1, Genbank AI039874, probe 201467_s_at): 2.56 fold | Maximal effect, Fold induction (gene NR3C1, Genbank AI432196, probe 201865_x_at): 2.08 fold | Maximal effect, Fold induction (gene PARVA, Genbank NM_018222, probe 217890_s_at): 2.17 fold | Maximal effect, Fold induction (gene PRDM15, Genbank AP001745, probe 225539_at): 2.04 fold | Maximal effect, Fold induction (gene PRSS23, Genbank NM_007173, probe 202458_at): 2.05 fold | Maximal effect, Fold induction (gene PSMD7, Genbank AW361702, probe 238738_at): 2.04 fold | Maximal effect, Fold induction (gene PTK9, Genbank N25562, probe 214008_at): 2.05 fold | Maximal effect, Fold induction (gene QDPR, Genbank BC000576, probe 209123_at): 2.02 fold | Maximal effect, Fold induction (gene S100P, Genbank NM_005980, probe 204351_at): 2.33 fold | Maximal effect, Fold induction (gene SGPL1, Genbank NM_003901, probe 208381_s_at): 2.14 fold | Maximal effect, Fold induction (gene SLC35D2, Genbank AJ005866, probe 213083_at): 2.73 fold | Maximal effect, Fold induction (gene SMAD5, Genbank AI439752, probe 235451_at): 2.30 fold | Maximal effect, Fold induction (gene STYX, Genbank BG390493, probe 244030_at): 2.01 fold | Maximal effect, Fold induction (gene SUOX, Genbank NM_000456, probe 1553030_a_at): 2.05 fold | Maximal effect, Fold induction (gene TACSTD2, Genbank J04152, probe 202286_s_at): 2.17 fold | Maximal effect, Fold induction (gene TEAD2, Genbank AA337048, probe 238323_at): 2.81 fold | Maximal effect, Fold induction (gene TGFB2, Genbank AU145950, probe 228121_at): 2.04 fold | Maximal effect, Fold induction (gene TLE3, Genbank AI567426, probe 212769_at): 2.72 fold | Maximal effect, Fold induction (gene TMEM42, Genbank BF056095, probe 226361_at): 2.47 fold | Maximal effect, Fold induction (gene TNFAIP2, Genbank NM_006291, probe 202510_s_at): 2.41 fold | Maximal effect, Fold induction (gene TRIO, Genbank AV718192, probe 209012_at): 2.07 fold | Maximal effect, Fold induction (gene UROS, Genbank NM_000375, probe 203031_s_at): 2.13 fold | Maximal effect, Fold induction (gene USP24, Genbank BF444943, probe 212381_at): 2.01 fold | Maximal effect, Fold induction (gene VHL, Genbank BF972755, probe 1559227_s_at): 2.05 fold | Maximal effect, Fold induction (gene WIG1, Genbank NM_022470, probe 219628_at): 2.30 fold | Maximal effect, Fold induction (gene ZNF26, Genbank BC046206, probe 1555325_s_at): 2.03 fold | Maximal effect, Fold induction (gene ZNF281, Genbank AA121673, probe 228785_at): 2.28 fold | Maximal effect, Fold induction (gene ZNF286, Genbank BM968434, probe 1557684_at): 2.29 fold
